# US20130142831A1, “COMPOUNDS FOR INFLAMMATION AND IMMUNE-RELATED USES” (Synta Pharmaceuticals Corp., priority 2004, published 2013)
# Counter-ions that a name gives are not always drawn.
# Columns and labels:
# Type in all cases: cell-based
# INF-γ = assay: Cytokine inhibition in PHA-stimulated primary human PBMCs: INF-γ; details: PBMCs stimulated with PHA; for IC50: Homo sapiens, PBMC, ELISA
# Protocol: (§1) Cytokine production was measured using commercially available human ELISA assay kits (from Cell Science, Inc.) following the manufacturers instructions.
# IL-5 = assay: Cytokine inhibition in PHA-stimulated primary human PBMCs: IL-5; details: PBMCs stimulated with PHA; for IC50: Homo sapiens, PBMC, ELISA
# Protocol: as §1
# IL-10 = assay: Cytokine inhibition in PHA-stimulated primary human PBMCs: IL-10; details: PBMC, PBMCs stimulated with PHA, ELISA
# Protocol: as §1
# IL-2 = assay: Cytokine inhibition in PHA-stimulated primary human PBMCs: IL-2; details: PBMCs stimulated with PHA; for IC50: Homo sapiens, PBMC, ELISA
# Protocol: as §1
# IL-4 = assay: Cytokine inhibition in PHA-stimulated primary human PBMCs: IL-4; details: PBMCs stimulated with PHA; for IC50: Homo sapiens, PBMC, ELISA
# Protocol: as §1
# GM-CSF = assay: Cytokine inhibition in PHA-stimulated primary human PBMCs: GM-CSF; details: PBMCs stimulated with PHA; for IC50: Homo sapiens, PBMC, ELISA
# Protocol: as §1
# IL-2 production = assay: Inhibition of IL-2 production in PHA-activated Jurkat cells; details: Homo sapiens, PHA 2.5 μg/mL, 20 hours, bins given in nM
# How it was run: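 Jurkat cells (0.5 million/well, 1% FBS) were preincubated with compound for 10 min, then stimulated with PHA (2.5 μg/mL final) for 20 h at 37 °C. Supernatant IL-2 was measured by ELISA. IC50 is the concentration giving 50% inhibition of maximal stimulated IL-2 relative to a non-stimulated control.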
# TNF-α = assay: Cytokine inhibition in PHA-stimulated primary human PBMCs: TNF-α; details: PBMCs stimulated with PHA; for IC50: Homo sapiens, PBMC, ELISA
# Protocol: as §1
# IL-13 = assay: Cytokine inhibition in PHA-stimulated primary human PBMCs: IL-13; details: PBMCs stimulated with PHA; for IC50: Homo sapiens, PBMC, ELISA
# Protocol: as §1
Structure (SMILES),IC50 (INF-γ),IC50 (IL-5),IC50 (IL-10),IC50 (IL-2),IC50 (IL-4),IC50 (GM-CSF),IC50 (IL-2 production),IC50 (TNF-α),IC50 (IL-13),Inhibition of INF-γ (in words) (INF-γ),Inhibition of IL-5 (in words) (IL-5),Inhibition of IL-2 (in words) (IL-2),Inhibition of IL-4 (in words) (IL-4),Inhibition of GM-CSF (in words) (GM-CSF),Inhibition of TNF-α (in words) (TNF-α),Inhibition of IL-13 (in words) (IL-13)
"COc1ccc2c(c1)nc(C(F)(F)F)n2-c1ccc(NC(=O)c2c(F)ccc(F)c2F)cc1 [Compound 1, 2,3,6-Trifluoro-N-[4-(2-trifluoromethyl-5-methoxy-benzoimidazol-1-yl)-phenyl]-benzamide]",95 nM,26 nM,> 1000 nM,29 nM,651 nM,788 nM,< 100 nM,424 nM,73 nM,–,–,–,–,–,–,–
"COc1ccc2c(c1)nc(C(F)(F)F)n2-c1ccc(NC(=O)c2ccc3c(c2)OCO3)cc1 [Compound 75, Benzo[1,3]dioxole-5-carboxylic acid {N-[4-(2-trifluoromethyl-5-methoxy-benzoimidazol-1-yl)-phenyl]} amide]",–,–,–,–,–,–,100 to 500 nM,–,–,potent inhibitors,potent inhibitors,potent inhibitors,potent inhibitors,potent inhibitors,potent inhibitors,potent inhibitors
"CC(=O)c1ccc2c(c1)nc(C(F)(F)F)n2-c1ccc(NC(=O)c2cccc(F)c2F)cc1 [Compound 133, 2,3-Difluoro-N-[4-(2-trifluoromethyl-5-acetyl-benzoimidazol-1-yl)-phenyl]-benzamide]",–,–,–,–,–,–,100 to 500 nM,–,–,–,–,–,–,–,–,–
"COc1ccc2c(c1)nc(C(F)(F)F)n2-c1ccc(NCc2c(F)cccc2F)cc1 [Compound 135, 2,6-Difluoro-N-[4-(2-trifluoromethyl-5-methoxy-benzoimidazol-1-yl)-phenyl]-benzylamine, HCl salt]",29 nM,13 nM,439 nM,3 nM,101 nM,99 nM,< 100 nM,47 nM,25 nM,–,–,–,–,–,–,–
